# Laboratory results reported in patent publication US20170209434A1, “PROTEIN PHOSPHATASE 2A INHIBITORS FOR TREATING MYELODYSPLASTIC SYNDROMES” (priority 2014, published 2017).
# How the values were obtained:
# del(5q) patient BM MNCs = test: Apoptosis of del(5q) patient BM MNCs; format: cell-based
# Protocol: FIG. 6 is a bar graph showing percentage of primary BM MNCs from a Del(5q) patient undergoing apoptosis after treatment with 0.1 μM, 1.0 μM, or 10 μM lenalidomide (grey) or 0.1 μM, 1.0 μM, or 10 μM LB-100 (black), compared to a control.
# Namalwa cells [1] = test: MTT assay, Namalwa cell proliferation; format: cell-based; conditions: 72 hours
# Protocol: (§1) FIG. 7A is a graph showing proliferation of HL60 cells 72 hours after treatment with 0.001 μM, 0.01 μM, 0.1 μM, 1.0 μM, 10 μM, or 100 μM LB-100 (grey) or 0.001 μM, 0.01 μM, 0.1 μM, 1.0 μM, 10 μM, or 100 μM lenalidomide (black), compared to control or vehicle. FIGS. 7B to 7C are graphs showing proliferation of Namalwa cells 72 hours after treatment with 0.001 μM, 0.01 μM, 0.1 μM, 1.0 μM, 10 μM, or 100 μM LB-100 (♦), 0.001 μM, 0.01 μM, 0.1 μM, 1.0 μM, 10 μM, or 100 μM lenalidomide (▪), or 0.001 μM, 0.01 μM, 0.1 μM, 1.0 μM, 10 μM, or 100 μM cantharidin (▴), compared to control or vehicle.
# (§2) HL60 cells and U937 cells were compared (FIGS. 8A and 8B).
# non-del(5q) MDS = test: Additional studies of efficacy in non-del(5q) MDS (Example 3); format: in vivo; conditions: subject afflicted with non-del(5q) MDS
# Protocol: (§3) Additional studies, similar to the aforementioned Phase I design, are conducted to evaluate the efficacy of LB-100, alone or in combination with lenalidomide, in patients with del(5q) MDS or non-del(5q) MDS.
# An amount of LB-100 is administered to a subject afflicted with non-del(5q) MDS. […] An amount of LB-100 in combination with lenalidomide is administered to a subject afflicted with non-del(5q) MDS.
# [2] = test system: MDS that is resistant to lenalidomide; test: Additional studies of efficacy in lenalidomide-resistant MDS (Example 3); format: in vivo
# Protocol: as §3
# Namalwa cells [3] = test: Apoptosis of Namalwa cells; format: cell-based; conditions: for Percent Apoptosis: dissolved in MSG
# Protocol: FIG. 3 is a bar graph showing percentage of Namalwa cells undergoing apoptosis after treatment with 0.1 μM, 1.0 μM or 10 μM LB-100 dissolved in DMSO (grey) or MSG (black) compared to control and vehicle.
# FIGS. 4A to 4D are a series of flow cytometry plots showing percentage of Namalwa cells undergoing apoptosis after treatment with control (FIG. 4A), 0.1 μM (FIG. 4B), 1.0 μM (FIG. 4C), or 10 μM (FIG. 4D) LB-100.
# del(5q) MDS = test: Additional studies of efficacy in del(5q) MDS (Example 3); format: in vivo; conditions: subject afflicted with del(5q) MDS
# Protocol: as §3
# An amount of LB-100 is administered to a subject afflicted with del(5q) MDS. […] An amount of LB-100 in combination with lenalidomide is administered to a subject afflicted with del(5q) MDS.
# [4] = test system: Non-del(5q) patient BM MNCs; test: Apoptosis of non-del(5q) patient BM MNCs; format: cell-based; conditions: FIG. 5, 0.1-10 μM
# protein phosphatase 2A = protein phosphatase 2A (Homo sapiens, UniProt P67775); conditions: cited from earlier work
# HL60 cells = test: MTT assay, HL60 cell proliferation; format: cell-based; conditions: 72 hours, significant difference at 1 μM
# Protocol: as §1, §2
# Namalwa cells [5] = test: Cell cycle analysis of Namalwa cells treated with LB-100; format: cell-based; conditions: for G1 / G2/M / S / Percent G1: 24 hours
# Protocol: FIG. 1 is a bar graph showing percent of Namalwa cells in G1 arrest 24 hours after treatment with 0.1 μM, 1.0 μM or 10 μM LB-100 dissolved in DMSO (grey) or MSG (black) compared to control and vehicle.
# FIG. 2 is a bar graph showing percent of Namalwa cells in G1 arrest 24 hours after treatment with 0.1 μM, 1.0 μM or 10 μM LB-100 compared to control.
# non-del (5q) MDS = conditions: cited from earlier work
# del(5q) MDS patients = conditions: cited from earlier work
# protein phosphatase 1 = conditions: cited from earlier work
# Chain of protein phosphatase 2A (P67775 whole entry): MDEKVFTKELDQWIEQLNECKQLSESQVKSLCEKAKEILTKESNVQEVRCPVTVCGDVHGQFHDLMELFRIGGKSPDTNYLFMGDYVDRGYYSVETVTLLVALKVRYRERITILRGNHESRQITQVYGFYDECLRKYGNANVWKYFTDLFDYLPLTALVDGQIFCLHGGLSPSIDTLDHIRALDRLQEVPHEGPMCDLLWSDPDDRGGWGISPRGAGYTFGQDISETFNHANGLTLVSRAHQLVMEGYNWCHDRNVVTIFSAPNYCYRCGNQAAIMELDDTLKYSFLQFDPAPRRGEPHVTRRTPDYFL
structure (smiles),measurement,setting,value
CN1CCN(C(=O)C2C(C(=O)O)[C@H]3CC[C@@H]2O3)CC1 (stereo partly drawn) [LB100],"Apoptosis, dose dependence (in words)","del(5q) patient BM MNCs; FIG. 6, 0.1-10 μM",induced apoptosis in a dose dependent fashion
same,Apoptosis (in words),del(5q) patient BM MNCs; at 1 μM,mild increase in apoptosis
same,Cytotoxicity compared with lenalidomide (in words),del(5q) patient BM MNCs; at 10 μM,more cytotoxic than lenalidomide
same,Proliferation in comparison to control (in words),Namalwa cells [1],significant decrease in proliferation
same,Efficacy in treating non-del(5q) MDS (in words),non-del(5q) MDS,effective to treat
same,Efficacy in treating MDS resistant to lenalidomide (in words),[2],effective to treat
same,Percent Apoptosis,Namalwa cells [3]; 0.1 μM,6.18%
same,Percent Apoptosis,Namalwa cells [3]; 1.0 μM,6.5%
same,Percent Apoptosis,Namalwa cells [3]; 10 μM,55.8%
same,Apoptosis (in words),Namalwa cells [3]; at 10 μM when dissolved in MSG,led to apoptosis
same,Efficacy in treating del(5q) MDS (in words),del(5q) MDS,effective to treat
same,Apoptosis (in words),[4],did not lead to apoptosis
same,PP2A inhibition (in words),protein phosphatase 2A,greater potency than lenalidomide
same,Proliferation in comparison to treatment with lenalidomide (in words),HL60 cells,significant decreased proliferation
same,G1,"Namalwa cells [5]; 0.1 μM, dissolved in DMSO",17.73%
same,G2/M,"Namalwa cells [5]; 0.1 μM, dissolved in DMSO",16.51
same,S,"Namalwa cells [5]; 0.1 μM, dissolved in DMSO",65.76
same,G1,"Namalwa cells [5]; 0.1 uM, dissolved in MSG",18.69%
same,G2/M,"Namalwa cells [5]; 0.1 uM, dissolved in MSG",17.93
same,S,"Namalwa cells [5]; 0.1 uM, dissolved in MSG",63.37
same,G1,"Namalwa cells [5]; 1.0 μM, dissolved in DMSO",18.38%
same,G2/M,"Namalwa cells [5]; 1.0 μM, dissolved in DMSO",18.22
same,S,"Namalwa cells [5]; 1.0 μM, dissolved in DMSO",63.41
same,G1,"Namalwa cells [5]; 1.0 uM, dissolved in MSG",41.48%
same,G2/M,"Namalwa cells [5]; 1.0 uM, dissolved in MSG",6.96
same,S,"Namalwa cells [5]; 1.0 uM, dissolved in MSG",51.56
same,G1,"Namalwa cells [5]; 10 μM, dissolved in DMSO",28.97%
same,G2/M,"Namalwa cells [5]; 10 μM, dissolved in DMSO",8.9
same,S,"Namalwa cells [5]; 10 μM, dissolved in DMSO",62.13
same,G1,"Namalwa cells [5]; 10 uM, dissolved in MSG",46.34%
same,G2/M,"Namalwa cells [5]; 10 uM, dissolved in MSG",8.5
same,S,"Namalwa cells [5]; 10 uM, dissolved in MSG",45.15
same,G2/M,"Namalwa cells [5]; Table 2, 0.1 μM",12.06%
same,Percent G1,"Namalwa cells [5]; Table 2, 0.1 μM",24.01%
same,S,"Namalwa cells [5]; Table 2, 0.1 μM",63.93%
same,G2/M,"Namalwa cells [5]; Table 2, 1.0 μM",20.8%
same,Percent G1,"Namalwa cells [5]; Table 2, 1.0 μM",31.35%
same,S,"Namalwa cells [5]; Table 2, 1.0 μM",47.85%
same,G2/M,"Namalwa cells [5]; Table 2, 10 μM",6.13%
same,Percent G1,"Namalwa cells [5]; Table 2, 10 μM",51.18%
same,S,"Namalwa cells [5]; Table 2, 10 μM",42.69%
same,"G1 arrest, dose dependence (in words)","Namalwa cells [5]; Table 2 and FIG. 2, 0.1-10 μM",led to G1 arrest in a dose-dependent fashion
same,G1 arrest (in words),Namalwa cells [5]; at 10 μM in DMSO,led to G1 arrest
same,G1 arrest (in words),Namalwa cells [5]; at 1 and 10 μM in MSG,led to G1 arrest
"Nc1cccc2c1CN(C1CCC(=O)NC1=O)C2=O (stereo not drawn) [Lenalidomide, lenalidomide]","transfusion independence (TI), % of patients",non-del (5q) MDS,26%
same,"transfusion independence (TI), % of patients",del(5q) MDS patients; lower risk MDS patients with del(5q),67%
same,"duration of response, median",del(5q) MDS patients; patients with del5q MDS,2.5 years
"C=C1[C@@H](O)[C@@H]2O[C@]3(CC[C@H](/C=C/[C@@H](C)[C@@H]4CC(C)=C[C@@]5(O[C@H](C[C@@](C)(O)C(=O)O)CC[C@H]5O)O4)O3)CC[C@H]2O[C@@H]1[C@@H](O)C[C@H](C)[C@H]1O[C@@]2(CCCCO2)CC[C@H]1C [Okadaic acid, 9,10-Deepithio-9,10-didehydroacanthifolicin]",IC50,protein phosphatase 1,3 to 15 nM
same,IC50,protein phosphatase 2A,0.1 to 1 nM
same,"Selectivity over PP2B, PP2C and a range of other phosphatases (in words)",protein phosphatase 2A,highly selective
C[C@@]12C(=O)OC(=O)[C@]1(C)[C@H]1CC[C@@H]2O1 [cantharidin],PP2A inhibition (in words),protein phosphatase 2A,potent and selective inhibitor of PP2A
